Source: patent US10793522B2, “Sulfonamides as inhibitors of the uptake of extracellular citrate” (Boehringer Ingelheim International GmbH, priority 2016, dated 2020)
pIC50: −log10 of the molar value.

Biological target: T1, human GlyT2 (Homo sapiens, UniProt Q9Y345)
T1 construct: host or cells: HEK293 (HEK293-hGlyT2), cDNA sub-cloned into pcDNA3.1zeo
T1 sequence (Q9Y345 1-797): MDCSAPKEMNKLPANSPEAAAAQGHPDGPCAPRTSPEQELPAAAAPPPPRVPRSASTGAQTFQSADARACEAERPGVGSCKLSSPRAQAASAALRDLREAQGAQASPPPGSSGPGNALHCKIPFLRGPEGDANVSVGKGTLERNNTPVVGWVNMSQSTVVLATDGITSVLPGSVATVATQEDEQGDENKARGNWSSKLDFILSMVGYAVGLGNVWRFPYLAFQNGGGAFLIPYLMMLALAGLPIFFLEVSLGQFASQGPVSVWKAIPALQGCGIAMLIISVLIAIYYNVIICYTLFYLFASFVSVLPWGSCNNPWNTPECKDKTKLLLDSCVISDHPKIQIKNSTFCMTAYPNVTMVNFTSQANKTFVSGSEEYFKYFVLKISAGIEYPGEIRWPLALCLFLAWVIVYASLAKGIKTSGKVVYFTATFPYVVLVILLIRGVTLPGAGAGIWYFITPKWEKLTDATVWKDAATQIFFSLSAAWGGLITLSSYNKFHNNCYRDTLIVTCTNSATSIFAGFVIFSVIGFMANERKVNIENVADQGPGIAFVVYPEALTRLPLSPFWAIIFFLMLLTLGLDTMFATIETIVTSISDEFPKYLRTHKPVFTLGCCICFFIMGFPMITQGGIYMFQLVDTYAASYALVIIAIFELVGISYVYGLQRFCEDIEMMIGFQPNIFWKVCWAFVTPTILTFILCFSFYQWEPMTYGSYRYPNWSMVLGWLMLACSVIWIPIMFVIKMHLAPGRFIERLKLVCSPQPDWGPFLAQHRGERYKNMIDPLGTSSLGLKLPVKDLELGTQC
Assay: Recombinant human GlyT2/3H-glycine uptake assay
Format: cell-based
Conditions: HEK293 cells over-expressing human GlyT2; Cytostar-T; 3H-glycine 100 nM; 2 hours
From the text: (6) Recombinant Human GlyT2/^3H-Glycine Uptake Assay
The human embryonic kidney 293 cell clone (HEK293-hGlyT2) over-expressing the human GlyT2 transporter was generated (the plasmid pCMV6-XL5-hGlyT2 containing the cDNA coding for the human GlyT2 transporter was obtained from Origene, the cDNA for GlyT2 was taken from this plasmid and sub-cloned into pcDNA3.1zeo from Invitrogen).
Human embryonic kidney 293 (HEK 293) cells are used that stably over-express the human GlyT2 […] which is responsible for the uptake of glycine into these cells.
The uptake of ^3H-glycine into the HEK 293 hGlyT2 cells is monitored using the Cytostar-T assay. This assay format is based on the imported radioactive glycine brought into proximity with the scintillant contained within the base of the plate by virtue of the biological processes within the cells. The radioactive decay is converted to a light signal based on the integration of the scintillation matrix into the assay plate.
Method: ^3H-Glycine Uptake Assay
The hGlyT2 over-expressing HEK 293 cells are cultivated in cell culture medium (DMEM+10% fetal calf serum+100 μg/mL Zeocin). For the assay, the medium of the 90% confluent cultures is removed and the cells are washed with DPBS. The cells are detached by the addition of 2 mL AccuMax and resuspended in 10 mL culture medium. The cell suspension is centrifuged at 1000 U/min for 5 min, the supernatant is removed and cells resuspended in expression medium (MEM (medium without glycine)+10% fetal calf serum) without glycine to 200,000 cells/mL and distributed into the Cytostar-T Scintillating 96-well Microplates (40,000 cells/well; 200 μl/well). The lid covered MTPs are then incubated for 24 hours at 37° C.; 5% CO2.
The following day, the cell plates are washed once with 200 μL HBSS/Ala buffer (HBSS 10× (+Ca, +Mg) with 5 mM Alanine adjusted to pH 7.4 with NaOH) following a 1 h incubation at 37° C.; 5% CO2, and subsequently 100 μL/well of HBSS/Ala containing 1.2× the concentration of compound in 1.2% DMSO (test range final: 100 μM-100 nM) incubated for 20 min at 37° C. Following the addition of 20 μL/well ^3H-glycine in HBSS/Ala (final ^3H-glycine concentration 100 nM) and an incubation for 2 hours at 37° C., the assay plate is placed into the Topcount NXT HTS and the signal is recorded.
The IC50 values of the compounds are calculated in IDBS XLfit by sigmoidal dose-response (variable slope).

Structure (SMILES)	pIC50
O=C(NCc1ccccc1F)C1CCN(S(=O)(=O)c2cc(Cl)cc(Cl)c2)CC1 [(I-2)]	< 4.00
O=C(NCc1ccc(Cl)cc1)C1CCN(S(=O)(=O)c2cc(Cl)cc(Cl)c2)CC1 [(I-5)]	< 4.00
O=C(NCc1ccc(F)cc1)C1CCN(S(=O)(=O)c2cc(Cl)cc(Cl)c2)CC1 [(I-10)]	< 4.00
O=C(NCc1ccccn1)C1CCN(S(=O)(=O)c2cc(Cl)cc(Cl)c2)CC1 [(I-11)]	< 4.00
Cc1ccc(CNC(=O)C2CCN(S(=O)(=O)c3cc(Cl)cc(Cl)c3)CC2)nc1 [(I-15)]	< 4.00
O=C(NCc1ccc(F)cn1)C1CCN(S(=O)(=O)c2cc(Cl)cc(Cl)c2)CC1 [(I-20)]	< 4.15
Cc1cnc(CNC(=O)C2CCN(S(=O)(=O)c3cc(Cl)cc(Cl)c3)CC2)s1 [(I-27)]	< 4.00
CCOc1cc(Cl)cc(S(=O)(=O)N2CCC(C(=O)NCc3nccs3)CC2)c1 [(I-49)]	< 4.00
Cc1cc(Br)cc(S(=O)(=O)N2CCC(C(=O)NCc3ccccn3)CC2)c1 [(I-61)]	< 4.00
N#Cc1ccc(CNC(=O)C2CCN(S(=O)(=O)c3cc(Cl)cc(Cl)c3)CC2)cc1 [Example (I-1)]	< 4.00
